The record followed here is PubChem BioAssay (NCI).

Some test systems named below: LOX IMVI melanoma; MOLT-4 leukemia; SK-OV-3 ovarian; COLO 205 colon; SN12C renal; MALME-3M melanoma; HOP-92 NSCLC; MDA-MB-435; U251 CNS; NCI-H460 lung; A498 renal; SR leukemia; CCRF-CEM leukemia; HCT-116 colon; OVCAR-3 ovarian; HCC-2998 colon; PC-3 prostate; TK-10 renal; HL-60(TB) leukemia.
What all share (assay): NCI anticancer screen, dose series, 48 h

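These data come from cells grown in 96-well plates and exposed to compound for 48 hours at five concentrations. GI50 = concentration required for 50% inhibition of growth. TGI marks complete inhibition of growth.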

As for `CCC1C(c2cc(OC)c(OC)c(OC)c2)c2cc3c(cc2OC1N1CCCC1)OCO3` (centres undefined), the TGI with LOX IMVI melanoma was found to be 22 µM; in the assay with MOLT-4 leukemia, 22.8 µM; in the assay with SK-OV-3 ovarian it was 26.6 µM; with COLO 205 colon it was 12.1 µM; with SN12C renal it was 31.8 µM; in the assay with MALME-3M melanoma it was 40.3 µM. Moreover, the TGI with HOP-92 NSCLC is 21.3 µM; with MDA-MB-435 it was 1.07 µM; with U251 CNS, 11.7 µM; in the assay with NCI-H460 lung, 12.4 µM; in the assay with A498 renal, 14 µM; with SR leukemia, above 47.6 µM. Also, the TGI was 11.9 µM in the assay on CCRF-CEM leukemia; 11.5 µM in the assay on HCT-116 colon; 8.53 µM in the assay with OVCAR-3 ovarian; 8.16 µM in the assay on HCC-2998 colon; above 37.6 µM in the assay with PC-3 prostate; 40.3 µM in the assay with TK-10 renal. Also, in the assay with HL-60(TB) leukemia, the TGI was above 23.3 µM.
In the case of `COc1cc(OC)c(OC)cc1/C=N/N=C(\N)NO`, the TGI in the assay with LOX IMVI melanoma, with MOLT-4 leukemia, in the assay with SK-OV-3 ovarian, in the assay with COLO 205 colon, in the assay with SN12C renal and with MALME-3M melanoma was above 100 µM each time. The TGI in the assay on HOP-92 NSCLC, in the assay on MDA-MB-435, in the assay with U251 CNS, with NCI-H460 lung, in the assay on A498 renal and in the assay on SR leukemia was above 100 µM throughout. The TGI in the assay with CCRF-CEM leukemia, with HCT-116 colon, with OVCAR-3 ovarian, in the assay on HCC-2998 colon, with PC-3 prostate and in the assay with TK-10 renal was above 100 µM in each case. This compound returned a TGI in the assay with HL-60(TB) leukemia above 100 µM.
In the case of `COc1nc(N)c(NC2OC(CO)C(O)C2O)c(=O)[nH]1` (centres undefined), the TGI in the assay on LOX IMVI melanoma, in the assay with MOLT-4 leukemia, in the assay on SK-OV-3 ovarian, in the assay with COLO 205 colon, in the assay with SN12C renal and in the assay with MALME-3M melanoma was above 100 µM throughout. Also, the TGI in the assay on HOP-92 NSCLC, with MDA-MB-435, in the assay on U251 CNS, in the assay with NCI-H460 lung, in the assay with A498 renal and with SR leukemia was above 100 µM in each case. The TGI in the assay with CCRF-CEM leukemia, in the assay with HCT-116 colon, with OVCAR-3 ovarian, in the assay with HCC-2998 colon, in the assay with PC-3 prostate and in the assay on TK-10 renal was above 100 µM throughout. Moreover, the TGI with HL-60(TB) leukemia is above 100 µM.
In the case of `C#CCOCC12C=CC(O1)C1C(=O)N(C)C(=O)C12` (centres undefined), the TGI in the assay on LOX IMVI melanoma, in the assay on MOLT-4 leukemia, with SK-OV-3 ovarian, in the assay with COLO 205 colon, in the assay on SN12C renal and in the assay with MALME-3M melanoma was above 100 µM each time. In addition, the TGI with HOP-92 NSCLC, in the assay with MDA-MB-435, in the assay with U251 CNS, with NCI-H460 lung, in the assay with A498 renal and in the assay with SR leukemia was above 100 µM in each case. Moreover, the TGI with CCRF-CEM leukemia, in the assay with HCT-116 colon, in the assay on OVCAR-3 ovarian, with HCC-2998 colon, with PC-3 prostate and with TK-10 renal was above 100 µM each time. In addition, the TGI in the assay with HL-60(TB) leukemia is above 100 µM. Besides, in the assay on HOP-92 NSCLC, the GI50 was above 100 µM.
With `COc1nc2c(c(=O)n1C)N(C(C)=O)C1C(N2)OCC(OC(C)=O)C1OC(C)=O` (centres undefined), the TGI in the assay with LOX IMVI melanoma, in the assay with MOLT-4 leukemia, with SK-OV-3 ovarian, with COLO 205 colon, in the assay on SN12C renal and in the assay on MALME-3M melanoma was above 10 µM in each case. In addition, the TGI in the assay on HOP-92 NSCLC, with MDA-MB-435, in the assay with U251 CNS, with NCI-H460 lung, in the assay on A498 renal and in the assay with SR leukemia was above 10 µM throughout. Further, the TGI in the assay with CCRF-CEM leukemia, with HCT-116 colon, in the assay on OVCAR-3 ovarian, in the assay with HCC-2998 colon, in the assay on PC-3 prostate and in the assay with TK-10 renal was above 10 µM in each case. The compound also showed a TGI in the assay on HL-60(TB) leukemia above 10 µM.
`O=C(N=S(NC(=O)c1ccccc1)C(Cl)(Cl)Cl)c1ccccc1` (centres undefined): the TGI is 39.3 µM in the assay on LOX IMVI melanoma; 30.7 µM with MOLT-4 leukemia; above 31.6 µM with SK-OV-3 ovarian; 29.4 µM with COLO 205 colon; 56.2 µM in the assay on SN12C renal; 37.9 µM in the assay on MALME-3M melanoma. Also, the TGI in the assay on HOP-92 NSCLC is above 100 µM; with MDA-MB-435 it was 47.4 µM; in the assay with U251 CNS, above 90.7 µM; in the assay on NCI-H460 lung, above 70.9 µM; in the assay with A498 renal, 76.2 µM; in the assay on SR leukemia, above 73.4 µM. The TGI was 12.1 µM in the assay with CCRF-CEM leukemia; 28.8 µM with HCT-116 colon; above 77.7 µM in the assay on OVCAR-3 ovarian; above 57.3 µM in the assay on HCC-2998 colon; above 100 µM in the assay on PC-3 prostate; above 100 µM with TK-10 renal. For the same compound, the TGI with HL-60(TB) leukemia worked out at 13.7 µM.
In the case of `COC(=O)c1c2n(c3ccccc13)C[C@H]1OC(C)(C)O[C@@H]21`, the TGI is above 100 µM with LOX IMVI melanoma; above 100 µM in the assay with MOLT-4 leukemia; above 100 µM in the assay on SK-OV-3 ovarian; above 100 µM in the assay on COLO 205 colon; above 100 µM in the assay with SN12C renal; above 87.6 µM in the assay on MALME-3M melanoma. For the same compound, the TGI in the assay with HOP-92 NSCLC, with MDA-MB-435, in the assay with U251 CNS, in the assay on NCI-H460 lung, with A498 renal and in the assay on SR leukemia was above 100 µM throughout. Further, the TGI in the assay with CCRF-CEM leukemia, in the assay with HCT-116 colon, in the assay with OVCAR-3 ovarian, in the assay on HCC-2998 colon, in the assay with PC-3 prostate and with TK-10 renal was above 100 µM in each case. This compound came in with a TGI with HL-60(TB) leukemia above 100 µM.
